Source: PubChem BioAssay (NCI)
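Values below derive from 48-hour exposures of cells grown in 96-well plates, with endpoints linearly interpolated between the two concentrations bracketing the appropriate inhibition level. The concentration for 50% growth inhibition is given as GI50. TGI is the concentration that stops growth completely.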

Key:
Assay in all cases: NCI tumour cell line growth inhibition, 48 h
MDA-MB-435 = system: MDA-MB-435
SN12C renal = system: SN12C renal
SK-MEL-5 melanoma = system: SK-MEL-5 melanoma
K-562 leukemia = system: K-562 leukemia
OVCAR-3 ovarian = system: OVCAR-3 ovarian
EKVX NSCLC = system: EKVX NSCLC
CCRF-CEM leukemia = system: CCRF-CEM leukemia
MDA-MB-231 breast = system: MDA-MB-231 breast
CAKI-1 renal = system: CAKI-1 renal
SK-OV-3 ovarian = system: SK-OV-3 ovarian
SW-620 colon = system: SW-620 colon
COLO 205 colon = system: COLO 205 colon
OVCAR-4 ovarian = system: OVCAR-4 ovarian
MOLT-4 leukemia = system: MOLT-4 leukemia
HT29 colon = system: HT29 colon
RXF 393 renal = system: RXF 393 renal
NCI-H23 lung = system: NCI-H23 lung
OVCAR-5 ovarian = system: OVCAR-5 ovarian
LOX IMVI melanoma = system: LOX IMVI melanoma
NCI/ADR-RES ovarian = system: NCI/ADR-RES ovarian
RPMI-8226 leukemia = system: RPMI-8226 leukemia
786-0 renal = system: 786-0 renal
HOP-62 NSCLC = system: HOP-62 NSCLC
A498 renal = system: A498 renal
MCF7 breast = system: MCF7 breast
IGROV1 ovarian = system: IGROV1 ovarian
U251 CNS = system: U251 CNS
T-47D breast = system: T-47D breast
UO-31 renal = system: UO-31 renal
HCT-15 colon = system: HCT-15 colon
SF-295 CNS = system: SF-295 CNS
SNB-75 CNS = system: SNB-75 CNS
TK-10 renal = system: TK-10 renal
ACHN renal = system: ACHN renal
DU-145 prostate = system: DU-145 prostate
NCI-H460 lung = system: NCI-H460 lung
SNB-19 CNS = system: SNB-19 CNS
OVCAR-8 ovarian = system: OVCAR-8 ovarian
HL-60(TB) leukemia = system: HL-60(TB) leukemia
UACC-257 melanoma = system: UACC-257 melanoma
UACC-62 melanoma = system: UACC-62 melanoma
SF-539 CNS = system: SF-539 CNS
HCT-116 colon = system: HCT-116 colon
SK-MEL-28 melanoma = system: SK-MEL-28 melanoma
NCI-H226 lung = system: NCI-H226 lung
SF-268 CNS = system: SF-268 CNS
MALME-3M melanoma = system: MALME-3M melanoma
A549 NSCLC = system: A549 NSCLC
HCC-2998 colon = system: HCC-2998 colon
BT-549 breast = system: BT-549 breast
KM12 colon = system: KM12 colon
SR leukemia = system: SR leukemia
SK-MEL-2 melanoma = system: SK-MEL-2 melanoma
HOP-92 NSCLC = system: HOP-92 NSCLC
PC-3 prostate = system: PC-3 prostate
HS 578T breast = system: HS 578T breast
M14 melanoma = system: M14 melanoma
NCI-H522 lung = system: NCI-H522 lung

Compound `CCOC(=O)N(c1ccccc1)c1cc(=O)n2ccccc2n1` has a TGI (MDA-MB-435) of over 100 µM, a TGI (SN12C renal) of over 100 µM and a TGI (SK-MEL-5 melanoma) of over 100 µM. The TGI (K-562 leukemia) was over 100 µM, the TGI (OVCAR-3 ovarian) was over 100 µM and the TGI (EKVX NSCLC) was over 100 µM. The TGI (CCRF-CEM leukemia) was over 100 µM, the TGI (MDA-MB-231 breast) was over 100 µM and the TGI (CAKI-1 renal) was over 100 µM. It also gave a TGI (SK-OV-3 ovarian) of over 100 µM, a TGI (SW-620 colon) of over 100 µM and a TGI (COLO 205 colon) of over 100 µM. The TGI (OVCAR-4 ovarian) was over 100 µM, the TGI (MOLT-4 leukemia) was over 100 µM and the TGI (HT29 colon) was over 100 µM. For the same compound, the TGI (RXF 393 renal) was over 100 µM, the TGI (NCI-H23 lung) was over 100 µM and the TGI (OVCAR-5 ovarian) was over 100 µM. For the same compound, the TGI (LOX IMVI melanoma) was over 100 µM, the TGI (NCI/ADR-RES ovarian) was over 100 µM and the TGI (RPMI-8226 leukemia) was over 100 µM. It also gave a TGI (786-0 renal) of over 100 µM, a TGI (HOP-62 NSCLC) of over 100 µM and a TGI (A498 renal) of over 100 µM. For the same compound, the TGI (MCF7 breast) was over 100 µM, the TGI (IGROV1 ovarian) was over 100 µM and the TGI (U251 CNS) was over 100 µM. It also gave a TGI (T-47D breast) of over 100 µM, a TGI (UO-31 renal) of over 100 µM and a TGI (HCT-15 colon) of over 100 µM. The TGI (SF-295 CNS) was over 100 µM, the TGI (SNB-75 CNS) was over 100 µM and the TGI (TK-10 renal) was over 100 µM. The TGI (ACHN renal) was over 100 µM, the TGI (DU-145 prostate) was over 100 µM and the TGI (NCI-H460 lung) was over 100 µM. It also gave a TGI (SNB-19 CNS) of over 100 µM, a TGI (OVCAR-8 ovarian) of over 100 µM and a TGI (HL-60(TB) leukemia) of over 100 µM. The TGI (UACC-257 melanoma) was over 100 µM, the TGI (UACC-62 melanoma) was over 100 µM and the TGI (SF-539 CNS) was over 100 µM. It also gave a TGI (HCT-116 colon) of over 100 µM, a TGI (SK-MEL-28 melanoma) of over 100 µM and a TGI (NCI-H226 lung) of over 100 µM. It also gave a TGI (SF-268 CNS) of over 100 µM, a TGI (MALME-3M melanoma) of over 100 µM and a TGI (A549 NSCLC) of over 100 µM. For the same compound, the TGI (HCC-2998 colon) was over 100 µM, the TGI (BT-549 breast) was over 100 µM and the TGI (KM12 colon) was over 100 µM. It also gave a TGI (SR leukemia) of over 100 µM.

Compound `COc1ccc(-c2nn(-c3cccc(NC(=O)c4ccc5c(c4)OCCO5)c3)cc2-c2ccncc2)cc1Cl` has a GI50 (SN12C renal) of 2.92 µM, a TGI (SN12C renal) of over 100 µM and a GI50 (SK-MEL-5 melanoma) of 0.968 µM. The TGI (SK-MEL-5 melanoma) was 3.3 µM, the GI50 (K-562 leukemia) was 0.71 µM and the TGI (K-562 leukemia) was 15.9 µM. For the same compound, the GI50 (CCRF-CEM leukemia) was 1.68 µM, the TGI (CCRF-CEM leukemia) was 10.3 µM and the GI50 (MDA-MB-231 breast) was 2.11 µM. It also gave a TGI (MDA-MB-231 breast) of 12.2 µM, a GI50 (CAKI-1 renal) of 2.63 µM and a TGI (CAKI-1 renal) of 15.8 µM. For the same compound, the GI50 (SK-OV-3 ovarian) was 3.82 µM, the TGI (SK-OV-3 ovarian) was over 100 µM and the GI50 (SW-620 colon) was 2.62 µM. It also gave a TGI (SW-620 colon) of 19.2 µM, a GI50 (COLO 205 colon) of 1.84 µM and a TGI (COLO 205 colon) of 4.64 µM. It also gave a GI50 (OVCAR-4 ovarian) of 4.39 µM, a TGI (OVCAR-4 ovarian) of over 100 µM and a GI50 (MOLT-4 leukemia) of 2.46 µM. It also gave a TGI (MOLT-4 leukemia) of 25.7 µM, a GI50 (HT29 colon) of 1.88 µM and a TGI (HT29 colon) of 12.1 µM. For the same compound, the GI50 (RXF 393 renal) was 1.23 µM, the TGI (RXF 393 renal) was 4.52 µM and the GI50 (NCI-H23 lung) was 2.71 µM. For the same compound, the TGI (NCI-H23 lung) was 21.3 µM, the GI50 (OVCAR-5 ovarian) was 5.19 µM and the TGI (OVCAR-5 ovarian) was 29.8 µM. For the same compound, the GI50 (LOX IMVI melanoma) was 3 µM, the TGI (LOX IMVI melanoma) was 13 µM and the GI50 (NCI/ADR-RES ovarian) was 1.01 µM. It also gave a TGI (NCI/ADR-RES ovarian) of 4.74 µM, a GI50 (SK-MEL-2 melanoma) of 2.36 µM and a TGI (SK-MEL-2 melanoma) of 7.15 µM. The GI50 (HOP-92 NSCLC) was 0.335 µM, the TGI (HOP-92 NSCLC) was 4.99 µM and the GI50 (PC-3 prostate) was 2.12 µM. The TGI (PC-3 prostate) was 18.1 µM, the GI50 (RPMI-8226 leukemia) was 1.36 µM and the TGI (RPMI-8226 leukemia) was 6.65 µM. For the same compound, the GI50 (786-0 renal) was 1.78 µM, the TGI (786-0 renal) was 5.91 µM and the GI50 (HOP-62 NSCLC) was 2.94 µM. The TGI (HOP-62 NSCLC) was 20.8 µM, the GI50 (A498 renal) was 0.422 µM and the TGI (A498 renal) was 3.45 µM. For the same compound, the GI50 (MCF7 breast) was 1.99 µM, the TGI (MCF7 breast) was 10.9 µM and the GI50 (IGROV1 ovarian) was 5.86 µM. For the same compound, the TGI (IGROV1 ovarian) was 57.2 µM, the GI50 (U251 CNS) was 1.18 µM and the TGI (U251 CNS) was 12.7 µM. The GI50 (HS 578T breast) was 1.61 µM, the TGI (HS 578T breast) was 8.13 µM and the GI50 (T-47D breast) was 2.96 µM. It also gave a TGI (T-47D breast) of 47.7 µM, a GI50 (UO-31 renal) of 2.57 µM and a TGI (UO-31 renal) of 17.3 µM. It also gave a GI50 (HCT-15 colon) of 1.61 µM, a TGI (HCT-15 colon) of 22.5 µM and a GI50 (SF-295 CNS) of 1.56 µM. The TGI (SF-295 CNS) was 4.43 µM, the GI50 (SNB-75 CNS) was 0.602 µM and the TGI (SNB-75 CNS) was 3.5 µM. For the same compound, the GI50 (TK-10 renal) was 5.25 µM, the TGI (TK-10 renal) was 29.3 µM and the GI50 (ACHN renal) was 3.82 µM. It also gave a TGI (ACHN renal) of over 100 µM, a GI50 (M14 melanoma) of 1.57 µM and a TGI (M14 melanoma) of 4.28 µM. It also gave a GI50 (DU-145 prostate) of 3.99 µM, a TGI (DU-145 prostate) of 24.9 µM and a GI50 (NCI-H460 lung) of 2.67 µM. It also gave a TGI (NCI-H460 lung) of 15.6 µM, a GI50 (SNB-19 CNS) of 4.63 µM and a TGI (SNB-19 CNS) of 98.1 µM. It also gave a GI50 (OVCAR-8 ovarian) of 2.47 µM, a TGI (OVCAR-8 ovarian) of over 100 µM and a GI50 (HL-60(TB) leukemia) of 2 µM. The TGI (HL-60(TB) leukemia) was 5.96 µM, the GI50 (UACC-257 melanoma) was 3.17 µM and the TGI (UACC-257 melanoma) was 20.5 µM. The GI50 (UACC-62 melanoma) was 1.46 µM, the TGI (UACC-62 melanoma) was 15.9 µM and the GI50 (SF-539 CNS) was 1.41 µM. For the same compound, the TGI (SF-539 CNS) was 3.48 µM, the GI50 (HCT-116 colon) was 2.03 µM and the TGI (HCT-116 colon) was 14.5 µM. The GI50 (SK-MEL-28 melanoma) was 1.9 µM, the TGI (SK-MEL-28 melanoma) was 11.6 µM and the GI50 (NCI-H226 lung) was 3.3 µM. It also gave a TGI (NCI-H226 lung) of over 100 µM, a GI50 (NCI-H522 lung) of 0.454 µM and a TGI (NCI-H522 lung) of 2.59 µM. It also gave a GI50 (SF-268 CNS) of 3.75 µM, a TGI (SF-268 CNS) of 34 µM and a GI50 (MALME-3M melanoma) of 0.833 µM. It also gave a TGI (MALME-3M melanoma) of 6.72 µM, a GI50 (A549 NSCLC) of 2.98 µM and a TGI (A549 NSCLC) of 77.5 µM. For the same compound, the GI50 (HCC-2998 colon) was 5.48 µM, the TGI (HCC-2998 colon) was 17.9 µM and the GI50 (BT-549 breast) was 1.79 µM. It also gave a TGI (BT-549 breast) of 7.4 µM, a GI50 (KM12 colon) of 1.39 µM and a TGI (KM12 colon) of 6.76 µM. For the same compound, the GI50 (SR leukemia) was 1.1 µM and the TGI (SR leukemia) was 5.66 µM.
